The target in assay [1] is Somatostatin receptor type 3 (Homo sapiens, UniProt P32745).
For assay [2], the target named is Somatostatin receptor type 4 (Homo sapiens, UniProt P31391).
Assay [3] has as its target Somatostatin receptor type 5 (Homo sapiens, UniProt P35346).
In assay [4] the target is Somatostatin receptor type 2 (Homo sapiens, UniProt P30874).

Bridge positions count the residues as written; N and C are the ends. Square brackets hold non-standard residues; d marks the D form. Peptide text beside a SMILES is read from it. d2Nal = N[C@H](Cc1ccc2ccccc2c1)C(=O)O

The term IC50 denotes the concentration at which inhibition is half-maximal. A low value points to greater potency in that assay.

Chain of Somatostatin receptor type 4 (P31391 whole entry): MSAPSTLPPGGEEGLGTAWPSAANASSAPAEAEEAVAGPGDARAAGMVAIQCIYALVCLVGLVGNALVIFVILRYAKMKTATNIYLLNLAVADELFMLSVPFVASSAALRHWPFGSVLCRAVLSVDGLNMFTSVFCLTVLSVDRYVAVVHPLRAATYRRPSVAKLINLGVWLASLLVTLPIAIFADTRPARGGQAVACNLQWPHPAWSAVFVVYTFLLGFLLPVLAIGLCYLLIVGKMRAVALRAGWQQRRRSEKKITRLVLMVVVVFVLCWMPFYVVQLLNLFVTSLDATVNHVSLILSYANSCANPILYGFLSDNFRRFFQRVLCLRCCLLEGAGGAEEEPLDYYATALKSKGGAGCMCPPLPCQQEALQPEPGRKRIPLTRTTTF
Chain of Somatostatin receptor type 3 (P32745 whole entry): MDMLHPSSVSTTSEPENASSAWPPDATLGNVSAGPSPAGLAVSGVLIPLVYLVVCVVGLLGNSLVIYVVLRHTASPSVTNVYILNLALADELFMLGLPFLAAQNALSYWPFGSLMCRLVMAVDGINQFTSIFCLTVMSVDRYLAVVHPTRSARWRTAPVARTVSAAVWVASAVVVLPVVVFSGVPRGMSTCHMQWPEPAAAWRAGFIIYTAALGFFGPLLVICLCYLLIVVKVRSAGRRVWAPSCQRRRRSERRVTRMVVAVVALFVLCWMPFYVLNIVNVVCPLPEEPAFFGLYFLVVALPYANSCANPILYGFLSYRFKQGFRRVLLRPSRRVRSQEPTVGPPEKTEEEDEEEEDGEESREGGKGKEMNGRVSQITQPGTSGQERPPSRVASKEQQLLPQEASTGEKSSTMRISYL
Chain of Somatostatin receptor type 2 (P30874 whole entry): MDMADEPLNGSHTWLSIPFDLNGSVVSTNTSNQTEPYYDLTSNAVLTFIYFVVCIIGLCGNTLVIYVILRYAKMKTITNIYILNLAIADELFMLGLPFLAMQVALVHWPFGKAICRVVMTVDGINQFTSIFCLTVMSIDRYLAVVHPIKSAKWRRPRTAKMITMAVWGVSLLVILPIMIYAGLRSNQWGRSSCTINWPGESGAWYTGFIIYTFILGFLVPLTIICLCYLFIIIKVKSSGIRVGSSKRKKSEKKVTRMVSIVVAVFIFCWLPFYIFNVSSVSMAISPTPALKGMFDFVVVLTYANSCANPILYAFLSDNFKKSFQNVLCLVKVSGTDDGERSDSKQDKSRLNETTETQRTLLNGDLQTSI
Chain of Somatostatin receptor type 5 (P35346 whole entry): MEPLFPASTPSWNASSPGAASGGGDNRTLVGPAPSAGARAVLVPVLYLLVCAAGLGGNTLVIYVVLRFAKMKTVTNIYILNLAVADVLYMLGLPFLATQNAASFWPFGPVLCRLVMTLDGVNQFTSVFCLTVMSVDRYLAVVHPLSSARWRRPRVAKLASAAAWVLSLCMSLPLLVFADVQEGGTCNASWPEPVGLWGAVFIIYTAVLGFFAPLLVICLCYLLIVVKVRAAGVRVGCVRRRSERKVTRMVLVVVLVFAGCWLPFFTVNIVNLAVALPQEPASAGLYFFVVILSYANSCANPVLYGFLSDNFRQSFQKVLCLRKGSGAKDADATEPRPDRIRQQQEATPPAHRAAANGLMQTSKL

`CC[C@@H]1NC(=O)[C@H](CCCCN)NC(=O)[C@@H](Cc2c[nH]c3ccccc23)NC(=O)[C@H](Cc2ccc(O)cc2)NC(=O)[C@@H](NC(=O)[C@H](N)Cc2ccccc2)CSSC[C@@H](C(=O)N[C@H](C(N)=O)[C@@H](C)O)NC1=O` [D-Phe-L-Cys(1)-L-Tyr-D-Trp-L-Lys-L-Abu-L-Cys(1)-L-Thr-NH2] displayed an IC50 in assay [1] of 89 nM.
`C[C@@H](O)[C@H](NC(=O)[C@H](Cc1ccccc1)NC(=O)[C@@H](NC(=O)[C@H](CCCCN)NC(=O)[C@@H](Cc1c[nH]c2ccccc12)NC(=O)[C@H](Cc1ccccc1)NC(=O)[C@H](Cc1ccccc1)NC(=O)[C@H](N)Cc1ccccc1)[C@@H](C)O)C(N)=O` [CAS_133073-82-2] (H-[dF]FF[dW]KTFT-NH2): 132 nM corresponded to half-maximal inhibition in assay [2] (IC50).
For `CC(C)[C@@H]1NC(=O)[C@H](CCCCN)NC(=O)[C@@H](Cc2c[nH]c3ccccc23)NC(=O)[C@H](Cc2ccc(O)cc2)NC(=O)[C@@H](NC(=O)[C@H](N)Cc2ccc3ccccc3c2)CSSC[C@@H](C(=O)N[C@H](C(N)=O)[C@@H](C)O)NC1=O` [3-(2-Naphtyl)-D-Ala-L-Cys(1)-L-Tyr-D-Trp-L-Lys-L-Val-L-Cys(1)-L-Thr-NH2], in assay [1], the IC50 is 107 nM.
As for `C[C@@H](O)[C@@H]1NC(=O)[C@H](CCCCN)NC(=O)[C@@H](Cc2c[nH]c3ccccc23)NC(=O)[C@H](Cc2ccccc2)NC(=O)[C@H](Cc2ccccc2)NC(=O)[C@H](N)CSSC[C@H](C(N)=O)NC(=O)[C@H](Cc2ccccc2)NC1=O` (H-[dC]FF[dW]KTF[dC]-NH2; disulfide 1-8), the IC50 was 0.37 nM in assay [3], 61.6 nM in assay [1] and 15.1 nM in assay [4].
In assay [2], `CC[C@@H]1NC(=O)[C@H](CCCCN)NC(=O)[C@@H](Cc2c[nH]c3ccccc23)NC(=O)[C@H](Cc2ccc(O)cc2)NC(=O)[C@@H](NC(=O)[C@@H](Cc2ccccc2)NC(=O)CN2CCN(CCO)CC2)CSSC[C@@H](C(=O)N[C@H](C(N)=O)[C@@H](C)O)NC1=O` [BIM-23190] showed an IC50 of 1000 nM.
For `CC(C)[C@H](NC(=O)[C@H](CCCCN)NC(=O)[C@@H](Cc1c[nH]c2ccccc12)NC(=O)[C@H](Cc1ccc(O)cc1)NC(=O)[C@H](Cc1ccccc1)NC(=O)[C@H](N)Cc1ccccc1)C(=O)N[C@@H](Cc1ccccc1)C(=O)N[C@H](Cc1ccc2ccccc2c1)C(N)=O` [CAS_150155-61-6] (H-[dF]FY[dW]KVF[d2Nal]-NH2), the IC50 was found to be 12.1 nM in assay [3], 177 nM in assay [1], 132 nM in assay [4] and 234 nM in assay [2].

The values above are taken from BindingDB's records for doi:10.1172/JCI119225 (Cedars-Sinai Research Institute, 1997).
